Results from US20110189213A1, “MYBL2 EPITOPE PEPTIDES AND VACCINES CONTAINING THE SAME” (Oncotherapy Science, Inc., priority 2008, published 2011).
“Also recorded” adds a separate entry of the source.

Tests used:
Type in all cases: cell-based, human
[1] = tested on: peptide-pulsed A24LCL cells; experiment: IFN-gamma ELISA assay on established CTL lines; settings: target cells pulsed with corresponding peptide vs target cells without peptide pulse
Protocol: CTLs were expanded in culture using the method similar to the one described by Riddell et al. (Walter E A et al., N Engl J Med 1995 Oct. 19, 333(16): 1038-44; Riddell S R et al., Nat Med 1996 February, 2(2): 216-23). A total of 5×10^4 CTLs were suspended in 25 ml of AIM-V/5% AS medium with 2 kinds of human B-lymphoblastoid cell lines, inactivated by MMC, in the presence of 40 ng/ml of anti-CD3 monoclonal antibody (Pharmingen). One day after initiating the cultures, 120 IU/ml of IL-2 were added to the cultures. The cultures were fed with fresh AIM-V/5% AS medium containing 30 IU/ml of IL-2 on days 5, 8 and 11 (Tanaka H et al., Br J Cancer 2001 Jan. 5, 84(1): 94-9; Umano Y et al., Br J Cancer 2001 Apr. 20, 84(8): 1052-7; Uchida N et al., Clin Cancer Res 2004 Dec. 15, 10(24): 8577-86; Suda T et al., Cancer Sci 2006 May, 97(5): 411-9; Watanabe T et al., Cancer Sci 2005 August, 96(8): 498-506).
(§1) To examine specific CTL activity, interferon (IFN)-gamma enzyme-linked immunospot (ELISPOT) assay and IFN-gamma enzyme-linked immunosorbent assay (ELISA) were performed. Specifically, peptide-pulsed A24LCL (1×10^4/well) was prepared as stimulator cells. Cultured cells in 48 wells were used as responder cells. IFN-gamma ELISPOT assay and IFN-gamma ELISA assay were performed under manufacture procedure.

[2] = tested on: CD8+ T cells stimulated with peptide-pulsed DCs (HLA-A*2402 positive); experiment: In vitro CTL induction and establishment of CTL lines; settings: cells of positive wells expanded
Excerpt: Monocyte-derived dendritic cells (DCs) were used as antigen-presenting cells (APCs) to induce cytotoxic T lymphocyte (CTL) responses against peptides presented on human leukocyte antigen (HLA). DCs were generated in vitro as described elsewhere (Nakahara S et al., Cancer Res 2003 Jul. 15, 63(14): 4112-8). Specifically, peripheral blood mononuclear cells (PBMCs) isolated from a normal volunteer (HLA-A*2402 positive) by Ficoll-Plaque (Pharmacia) solution were separated by adherence to a plastic tissue culture dish (Becton Dickinson) so as to enrich them as the monocyte fraction. The monocyte-enriched population was cultured in the presence of 1000 U/ml of granulocyte-macrophage colony-stimulating factor (GM-CSF) (R&D System) and 1000 U/ml of interleukin (IL)-4 (R&D System) in AIM-V Medium (Invitrogen) containing 2% heat-inactivated autologous serum (AS). After 7 days of culture, the cytokine-induced DCs were pulsed with 20 mcg/ml of each of the synthesized peptides in the presence of 3 mcg/ml of beta2-microglobulin for 3 hr at 37 degrees C. in AIM-V Medium. The generated cells appeared to express DC-associated molecules, such as CD80, CD83, CD86 and HLA class II, on their cell surfaces (data not shown). These peptide-pulsed DCs were then inactivated by Mitomycin C (MMC) (30 mcg/ml for 30 min) and mixed at a 1:20 ratio with autologous CD8+ T cells, obtained by positive selection with CD8 Positive Isolation Kit (Dynal). These cultures were set up in 48-well plates (Corning); each well contained 1.5×10^4 peptide-pulsed DCs, 3×10^5 CD8+ T cells and 10 ng/ml of IL-7 (R&D System) in 0.5 ml of AIM-V/2% AS medium. Three days later, these cultures were supplemented with IL-2 (CHIRON) to a final concentration of 20 IU/ml. On day 7 and 14, the T cells were further stimulated with the autologous peptide-pulsed DCs. The DCs were prepared each time by the same way described above. […]

[3] = tested on: peptide-pulsed A24LCL cells; experiment: IFN-gamma ELISPOT assay on CTLs induced with MYBL2 peptides; settings: against peptide-pulsed target cells vs control without peptide, day 21 after 3rd stimulation
Excerpt: Monocyte-derived dendritic cells (DCs) were used as antigen-presenting cells (APCs) to induce cytotoxic T lymphocyte (CTL) responses against peptides presented on human leukocyte antigen (HLA). DCs were generated in vitro as described elsewhere (Nakahara S et al., Cancer Res 2003 Jul. 15, 63(14): 4112-8). Specifically, peripheral blood mononuclear cells (PBMCs) isolated from a normal volunteer (HLA-A*2402 positive) by Ficoll-Plaque (Pharmacia) solution were separated by adherence to a plastic tissue culture dish (Becton Dickinson) so as to enrich them as the monocyte fraction. The monocyte-enriched population was cultured in the presence of 1000 U/ml of granulocyte-macrophage colony-stimulating factor (GM-CSF) (R&D System) and 1000 U/ml of interleukin (IL)-4 (R&D System) in AIM-V Medium (Invitrogen) containing 2% heat-inactivated autologous serum (AS). After 7 days of culture, the cytokine-induced DCs were pulsed with 20 mcg/ml of each of the synthesized peptides in the presence of 3 mcg/ml of beta2-microglobulin for 3 hr at 37 degrees C. in AIM-V Medium. The generated cells appeared to express DC-associated molecules, such as CD80, CD83, CD86 and HLA class II, on their cell surfaces (data not shown). These peptide-pulsed DCs were then inactivated by Mitomycin C (MMC) (30 mcg/ml for 30 min) and mixed at a 1:20 ratio with autologous CD8+ T cells, obtained by positive selection with CD8 Positive Isolation Kit (Dynal). These cultures were set up in 48-well plates (Corning); each well contained 1.5×10^4 peptide-pulsed DCs, 3×10^5 CD8+ T cells and 10 ng/ml of IL-7 (R&D System) in 0.5 ml of AIM-V/2% AS medium. Three days later, these cultures were supplemented with IL-2 (CHIRON) to a final concentration of 20 IU/ml. On day 7 and 14, the T cells were further stimulated with the autologous peptide-pulsed DCs. The DCs were prepared each time by the same way described above. CTL was tested against peptide-pulsed A24LCL cells after the 3rd round of peptide stimulation on day 21 (Tanaka H et al., Br J Cancer 2001 Jan. 5, 84(1): 94-9; Umano Y et al., Br J Cancer 2001 Apr. 20, 84(8): 1052-7; Uchida N et al., Clin Cancer Res 2004 Dec. 15, 10(24): 8577-86; Suda T et al., Cancer Sci 2006 May, 97(5): 411-9; Watanabe T et al., Cancer Sci 2005 August, 96(8): 498-506).
as §1

Sequence | IFN-gamma production of established CTL lines (ELISA) [1] | IFN-gamma production of established CTL lines (ELISA) ([1]; listed as MYBL2-A24-9-100) | Establishment of CTL lines [2] | IFN-gamma production of peptide-stimulated CTLs (ELISPOT) ([3]; listed as MYBL2-A24-9-100) | IFN-gamma production of established CTL lines (ELISA) ([1]; listed as MYBL2-A24-10-48) | IFN-gamma production of peptide-stimulated CTLs (ELISPOT) ([3]; listed as MYBL2-A24-10-48) | IFN-gamma production of established CTL lines (ELISA) ([1]; listed as MYBL2-A24-10-197) | IFN-gamma production of peptide-stimulated CTLs (ELISPOT) ([3]; listed as MYBL2-A24-10-197) | IFN-gamma production of established CTL lines (ELISA) ([1]; listed as MYBL2-A24-9-370) | IFN-gamma production of peptide-stimulated CTLs (ELISPOT) ([3]; listed as MYBL2-A24-9-370)
KYGTKQWTL [SEQ ID NO: 1, 9-mer peptide derived from MYBL2, start position 100] | potent IFN-gamma production against the target cells pulsed with corresponding peptide | potent IFN-gamma production as compared with the control | expanded and established CTL lines | potent IFN-gamma production as compared to the control wells; also recorded: potent IFN-gamma production as compared with the control | – | – | – | – | – | –
QFGQQDWKFL [SEQ ID NO: 12, 10-mer peptide derived from MYBL2, start position 48] | – | – | – | – | typical negative data of CTL response; also recorded: no specific IFN-gamma production against peptide-pulsed target cells was observed | typical negative data of CTL response; also recorded: no specific IFN-gamma production was detected | – | – | – | –
KPPVYLLLEL [SEQ ID NO: 13, 10-mer peptide derived from MYBL2, start position 197] | potent IFN-gamma production against the target cells pulsed with corresponding peptide | – | expanded and established CTL lines | – | – | – | potent IFN-gamma production as compared with the control | potent IFN-gamma production as compared to the control wells; also recorded: potent IFN-gamma production as compared with the control | – | –
EYRLDGHTI [SEQ ID NO: 2, 9-mer peptide derived from MYBL2, start position 370] | potent IFN-gamma production against the target cells pulsed with corresponding peptide | – | expanded and established CTL lines | – | – | – | – | – | potent IFN-gamma production as compared with the control | potent IFN-gamma production as compared to the control wells; also recorded: potent IFN-gamma production as compared with the control
